Experimental data reported in patent US20110028566A1, “COMPOSITIONS AND PRODUCTS CONTAINING CYCLOALIPHATIC DIOL ANTIMICROBIAL AGENTS AND METHODS OF USING THE COMPOSITIONS AND PRODUCTS” (EASTMAN CHEMICAL COMPANY, priority 2009, published 2011).

Legend:
Assay in all cases: Microbial challenge testing in BPW
Type in all cases: cell-based
[1] = system: Burkholderia cepacia
Procedure: (§1) The microorganisms used in challenge tests are given in Table 3, designated as either ATCC (American Type Culture Collection) or wild type. These wild type organisms were problematic organisms previously isolated from chemical products. In the description for each organism, the bacteria are indicated as either GN (Gram negative) or GP (Gram positive).
(§2) All of the microorganisms were grown in Tryptose Soy Broth (TSB), DIFCO™ available from Becton, Dickinson and Company, containing 1% dextrose. Aspergillus niger and Candida albicans were incubated at 22° C.±2° C. for at least 96 hours. All bacteria were incubated at 35° C.±2° C. in a humidified incubator for at least 96 hours.
(§3) The following procedure was followed to determine the amount of each challenge material (inoculum broth) required to produce a 10^8 cfu/mL challenge, which is equivalent to a final test-sample microbial concentration of 10^5 to 10^6 cfu (colony-forming units)/mL.
(§4) Using a sterile serological pipette, 1 mL of the growth from each TSB culture was transferred into tubes containing 9 mL phosphate buffer (pH 7.2) and mixed thoroughly. This process was repeated to make serial 1:10 dilutions. Then 0.1 mL of each sample and dilution was inoculated onto agar plates to produce the equivalent of a further 1:10 dilution. C. albicans and A. niger were inoculated onto SDA and bacteria were inoculated onto Plate Count Agar (PCA), DIFCO™ available from Becton, Dickinson and Company. The 0.1 mL aliquots were evenly distributed on the plates using the spread-plate technique. The spread-plate technique is performed by spreading the aliquot over the entire plate surface using a sterile spreading rod while rotating the plate with a rotary auto-plater. After the inoculum was absorbed completely, each plate was inverted and incubated (fungi at 22° C.±2° C. and bacteria at 35° C.±2° C.).
(§5) After incubation for at least 48 hours, colonies that had developed on the agar plates were counted and recorded with the corresponding dilution. If counting had to be delayed temporarily, plates were refrigerated, preferably no more than 24 hours, until they could be counted. The number of cfu/mL was determined by multiplying the count by the dilution factor for that particular plate.
(§6) Turbidity in Nepholemetric Turbidity Units (NTU) was measured for each serial dilution using the HF-Micro 100 Model Turbidimeter. For each microorganism, the plate counts were compared to the turbidity readings.
(§7) Control substrates (“broth alone”) were prepared for each microorganism separately in triplicate by adding 13.5 mL of BPW (pH 7.0) containing 1% (w/v) dextrose to each 20-mL glass tube; then adding 1.5 mL challenge material to produce a final concentration at time zero of 10^5 to 10^6 cfu/mL and a total volume of 15 mL.
(§8) Test sample substrates were prepared containing each test material (1,4-CHDM, etc) or combination of test materials at the concentrations shown in Tables 5 and 6. Sample substrates were prepared in triplicate, except those substrates containing PE or CG which were prepared in duplicate. Substrates were prepared by adding BPW containing 1% (w/v) dextrose to each 20-mL glass tube, then adding the test material in the amount appropriate to achieve the desired weight/volume percent (g/100 mL) and to obtain a total volume of BPW with dextrose and test material of 13.5 mL. Then 1.5 mL challenge material was added to produce a final concentration at time zero of 10^5 to 10^6 cfu/mL of the respective organism and a total test sample substrate volume of 15 mL.
(§9) After mixing, all challenged substrates were incubated at 35° C.±2° C. for 14 days and then at ambient room temperature.

[2] = system: Bacillus subtilis
Procedure: as §1, §2, §3, §4, §5, §6, §7, §8, §9

[3] = system: Staphylococcus epidermidis
Procedure: as §1, §2, §3, §4, §5, §6, §7, §8, §9

[4] = system: Staphylococcus aureus
Procedure: as §1, §2, §3, §4, §5, §6, §7, §8, §9

[5] = system: Escherichia coli
Procedure: as §1, §2, §3, §4, §5, §6, §7, §8, §9

[6] = system: Pseudomonas aeruginosa
Procedure: as §1, §2, §3, §4, §5, §6, §7, §8, §9

## O=c1[nH]sc2ccccc12 [BIT, 1,2-benzisothiazolin-3-one]
[1]; 0.05%, 30 days incubation
  Grade code B. cepacia: 4 (1001 to 10,000 colonies (thus 10,000 cfu/mL to 100,000 cfu/mL))
[1]; 0.2%, 3 days incubation
  Grade code B. cepacia: 3 (101 to 1000 colonies (thus 1000 to 10,000 cfu/mL))
[1]; 0.2%, 14 days incubation
  Grade code B. cepacia: 1 (1 to 51 colonies counted (thus 10 to 510 cfu/mL))
[1]; 0.2%, 30 days incubation
  Grade code B. cepacia: 2 (52 to 100 colonies counted (thus 520 to 1000 cfu/mL))
[2]; 0.05%, 3 days incubation
  Grade code B. subtilis: 4 (1001 to 10,000 colonies (thus 10,000 cfu/mL to 100,000 cfu/mL))
[2]; 0.05%, 14 days incubation
  Grade code B. subtilis: 4 (1001 to 10,000 colonies (thus 10,000 cfu/mL to 100,000 cfu/mL))
[2]; 0.05%, 30 days incubation
  Grade code B. subtilis: 4 (1001 to 10,000 colonies (thus 10,000 cfu/mL to 100,000 cfu/mL))
[2]; 0.2%, 3 days incubation
  Grade code B. subtilis: 4 (1001 to 10,000 colonies (thus 10,000 cfu/mL to 100,000 cfu/mL))
[2]; 0.2%, 14 days incubation
  Grade code B. subtilis: 4 (1001 to 10,000 colonies (thus 10,000 cfu/mL to 100,000 cfu/mL))
[2]; 0.2%, 30 days incubation
  Grade code B. subtilis: 4 (1001 to 10,000 colonies (thus 10,000 cfu/mL to 100,000 cfu/mL))
[3]; 0.05%, 3 days incubation
  Grade code S. epidermidis: 4 (1001 to 10,000 colonies (thus 10,000 cfu/mL to 100,000 cfu/mL))
[3]; 0.05%, 13 days incubation
  Grade code S. epidermidis: 4 (1001 to 10,000 colonies (thus 10,000 cfu/mL to 100,000 cfu/mL))
[3]; 0.05%, 30 days incubation
  Grade code S. epidermidis: 4 (1001 to 10,000 colonies (thus 10,000 cfu/mL to 100,000 cfu/mL))
[3]; 0.2%, 3 days incubation
  Grade code S. epidermidis: 4 (1001 to 10,000 colonies (thus 10,000 cfu/mL to 100,000 cfu/mL))
[3]; 0.2%, 13 days incubation
  Grade code S. epidermidis: 2 (52 to 100 colonies counted (thus 520 to 1000 cfu/mL))
[3]; 0.2%, 30 days incubation
  Grade code S. epidermidis: 2 (52 to 100 colonies counted (thus 520 to 1000 cfu/mL))
[4]; 0.05%, 3 days incubation
  Grade code S. aureus: 4 (1001 to 10,000 colonies (thus 10,000 cfu/mL to 100,000 cfu/mL))
[4]; 0.05%, 14 days incubation
  Grade code S. aureus: 4 (1001 to 10,000 colonies (thus 10,000 cfu/mL to 100,000 cfu/mL))
[4]; 0.05%, 30 days incubation
  Grade code S. aureus: 4 (1001 to 10,000 colonies (thus 10,000 cfu/mL to 100,000 cfu/mL))
[4]; 0.2%, 3 days incubation
  Grade code S. aureus: 4 (1001 to 10,000 colonies (thus 10,000 cfu/mL to 100,000 cfu/mL))
[4]; 0.2%, 14 days incubation
  Grade code S. aureus: 3 (101 to 1000 colonies (thus 1000 to 10,000 cfu/mL))
[4]; 0.2%, 30 days incubation
  Grade code S. aureus: 3 (101 to 1000 colonies (thus 1000 to 10,000 cfu/mL))
[5]; 0.05%, 3 days incubation
  Grade code E. coli: 4 (1001 to 10,000 colonies (thus 10,000 cfu/mL to 100,000 cfu/mL))
[5]; 0.05%, 14 days incubation
  Grade code E. coli: 4 (1001 to 10,000 colonies (thus 10,000 cfu/mL to 100,000 cfu/mL))
[5]; 0.05%, 30 days incubation
  Grade code E. coli: 4 (1001 to 10,000 colonies (thus 10,000 cfu/mL to 100,000 cfu/mL))
[5]; 0.2%, 3 days incubation
  Grade code E. coli: 1 (1 to 51 colonies counted (thus 10 to 510 cfu/mL))
[5]; 0.2%, 14 days incubation
  Grade code E. coli: 0 (No growth detected or <1 colony (thus <10 cfu/mL))
[5]; 0.2%, 30 days incubation
  Grade code E. coli: 0 (No growth detected or <1 colony (thus <10 cfu/mL))
[6]; 0.05%, 3 days incubation
  Grade code P. aeruginosa: 4 (1001 to 10,000 colonies (thus 10,000 cfu/mL to 100,000 cfu/mL))
[6]; 0.05%, 13 days incubation
  Grade code P. aeruginosa: 4 (1001 to 10,000 colonies (thus 10,000 cfu/mL to 100,000 cfu/mL))
[6]; 0.05%, 30 days incubation
  Grade code P. aeruginosa: 4 (1001 to 10,000 colonies (thus 10,000 cfu/mL to 100,000 cfu/mL))
[6]; 0.2%, 3 days incubation
  Grade code P. aeruginosa: 3 (101 to 1000 colonies (thus 1000 to 10,000 cfu/mL))
[6]; 0.2%, 13 days incubation
  Grade code P. aeruginosa: 4 (1001 to 10,000 colonies (thus 10,000 cfu/mL to 100,000 cfu/mL))
[6]; 0.2%, 30 days incubation
  Grade code P. aeruginosa: 4 (1001 to 10,000 colonies (thus 10,000 cfu/mL to 100,000 cfu/mL))
